From ChEMBL document CHEMBL4138216, “Design, synthesis and structure-activity relationship of a focused library of β-phenylalanine derivatives as novel eEF2K inhibitors with apoptosis-inducing mechanisms in breast cancer” (Eur J Med Chem, 2018)
Activity calls are given as the source filed them. No cut-off for these calls is given here.

Tests used:
MDA-MB-231 [1] = assay: Induction of apoptosis in human MDA-MB-231 cells assessed as increase in caspase-3 cleavage after 12 to 36 hrs by Western blot method; format: functional, cell-based
[2] = target: T1, Eukaryotic elongation factor 2 kinase (Homo sapiens, UniProt O00418); assay: Inhibition of eEF2K (unknown origin) using peptide MH-1 as substrate after 2 hrs by ADP-Glo luminescent assay
T1 sequence (O00418 whole entry): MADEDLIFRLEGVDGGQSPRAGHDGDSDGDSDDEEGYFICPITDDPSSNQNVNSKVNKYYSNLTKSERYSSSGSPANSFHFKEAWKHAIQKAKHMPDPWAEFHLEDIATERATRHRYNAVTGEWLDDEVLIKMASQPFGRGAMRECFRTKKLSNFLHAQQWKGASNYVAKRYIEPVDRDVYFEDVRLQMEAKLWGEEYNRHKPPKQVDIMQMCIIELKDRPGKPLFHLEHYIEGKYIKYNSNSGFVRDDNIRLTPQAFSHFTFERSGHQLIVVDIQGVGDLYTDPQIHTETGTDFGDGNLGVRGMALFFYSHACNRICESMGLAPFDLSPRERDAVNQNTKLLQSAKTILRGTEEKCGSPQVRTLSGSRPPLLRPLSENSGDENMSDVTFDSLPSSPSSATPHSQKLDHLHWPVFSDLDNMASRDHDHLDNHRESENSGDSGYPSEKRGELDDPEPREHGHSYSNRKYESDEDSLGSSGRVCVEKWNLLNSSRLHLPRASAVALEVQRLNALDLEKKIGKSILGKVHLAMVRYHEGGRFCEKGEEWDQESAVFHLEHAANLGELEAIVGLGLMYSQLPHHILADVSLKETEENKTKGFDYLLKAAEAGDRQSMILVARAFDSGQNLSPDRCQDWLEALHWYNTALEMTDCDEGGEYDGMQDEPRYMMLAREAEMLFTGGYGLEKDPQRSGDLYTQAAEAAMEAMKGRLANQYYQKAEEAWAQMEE

MDA-MB-231 [3] = assay: Antiproliferative activity against human MDA-MB-231 cells xenografted in BALB/c nude mouse at 25 to 100 mg/kg, ig qd measured after 24 days by Ki-67 staining-based assay; format: functional, organism-based
MDA-MB-231 [4] = assay: Induction of apoptosis in human MDA-MB-231 cells assessed as membrane blebbing by phase contrast microscopy; format: functional, cell-based
MDA-MB-436 [5] = assay: Induction of apoptosis in human MDA-MB-436 cells assessed as downregulation of Bcl-2 expression after 12 to 36 hrs by Western blot method; format: functional, cell-based
MDA-MB-231 [6] = assay: Antitumor activity against human MDA-MB-231 cells xenografted in ig dosed BALB/c nude mouse assessed as tumor growth inhibition administered once a day measured every 3 days for 24 days during compound dosing; format: functional, organism-based
MDA-MB-436 [7] = assay: Antiproliferative activity against human MDA-MB-436 cells assessed as decrease in cell viability after 24 hrs by MTT assay; format: functional, cell-based; details: MDA-MB-436, 24 h
MDA-MB-231 [8] = assay: Induction of apoptosis in human MDA-MB-231 cells assessed as increase in caspase-8 cleavage after 12 to 36 hrs by Western blot method; format: functional, cell-based
MDA-MB-436 [9] = assay: Antitumor activity against human MDA-MB-436 cells xenografted in ig dosed BALB/c nude mouse assessed as tumor growth inhibition administered once a day measured every 3 days for 24 days during compound dosing; format: functional, organism-based

IC50 [2]: 5.5 µM | IC50 (MDA-MB-436 [7]): 19.8 µM
SMILES: N#Cc1ccc(S(=O)(=O)NC(CC(=O)O)c2ccc(Cl)cc2Cl)cc1 (centres undefined)
Activity (MDA-MB-231 [1]): Active | Activity (MDA-MB-231 [3]): Active | Activity (MDA-MB-231 [4]): Active | Activity (MDA-MB-436 [5]): Active | TGI (MDA-MB-231 [6]): Dose-dependent effect | Activity (MDA-MB-231 [8]): Active | TGI (MDA-MB-436 [9]): Dose-dependent effect
